Test results as given in BigSolDB 2.1.

SMILES: c1cnc2[nH]ccc2c1
- solubility (mole fraction) (in THF, 278.15 K): 0.343
- solubility (mole fraction) (in THF, 283.15 K): 0.361
- solubility (mole fraction) (in THF, 288.15 K): 0.377
- solubility (mole fraction) (in THF, 293.15 K): 0.397
- solubility (mole fraction) (in THF, 298.15 K): 0.419
- solubility (mole fraction) (in THF, 303.15 K): 0.436
- solubility (mole fraction) (in THF, 308.15 K): 0.458
- solubility (mole fraction) (in THF, 313.15 K): 0.479
- solubility (mole fraction) (in THF, 318.15 K): 0.5
- solubility (mole fraction) (in THF, 323.15 K): 0.523
- solubility (mole fraction) (in acetone, 278.15 K): 0.262
- solubility (mole fraction) (in acetone, 283.15 K): 0.282
- solubility (mole fraction) (in acetone, 288.15 K): 0.301
- solubility (mole fraction) (in acetone, 293.15 K): 0.322
- solubility (mole fraction) (in acetone, 298.15 K): 0.341
- solubility (mole fraction) (in acetone, 303.15 K): 0.361
- solubility (mole fraction) (in acetone, 308.15 K): 0.383
- solubility (mole fraction) (in acetone, 313.15 K): 0.402
- solubility (mole fraction) (in acetone, 318.15 K): 0.423
- solubility (mole fraction) (in acetone, 323.15 K): 0.443
- solubility (mole fraction) (in acetonitrile, 278.15 K): 0.11
- solubility (mole fraction) (in acetonitrile, 283.15 K): 0.116
- solubility (mole fraction) (in acetonitrile, 288.15 K): 0.124
- solubility (mole fraction) (in acetonitrile, 293.15 K): 0.134
- solubility (mole fraction) (in acetonitrile, 298.15 K): 0.145
- solubility (mole fraction) (in acetonitrile, 303.15 K): 0.159
- solubility (mole fraction) (in acetonitrile, 308.15 K): 0.174
- solubility (mole fraction) (in acetonitrile, 313.15 K): 0.193
- solubility (mole fraction) (in acetonitrile, 318.15 K): 0.214
- solubility (mole fraction) (in acetonitrile, 323.15 K): 0.242
- solubility (mole fraction) (in ethanol, 278.15 K): 0.152
- solubility (mole fraction) (in ethanol, 283.15 K): 0.172
- solubility (mole fraction) (in ethanol, 288.15 K): 0.191
- solubility (mole fraction) (in ethanol, 293.15 K): 0.211
- solubility (mole fraction) (in ethanol, 298.15 K): 0.232
- solubility (mole fraction) (in ethanol, 303.15 K): 0.252
- solubility (mole fraction) (in ethanol, 308.15 K): 0.275
- solubility (mole fraction) (in ethanol, 313.15 K): 0.299
- solubility (mole fraction) (in ethanol, 318.15 K): 0.326
- solubility (mole fraction) (in ethanol, 323.15 K): 0.356
- solubility (mole fraction) (in ethyl acetate, 278.15 K): 0.21
- solubility (mole fraction) (in ethyl acetate, 283.15 K): 0.217
- solubility (mole fraction) (in ethyl acetate, 288.15 K): 0.226
- solubility (mole fraction) (in ethyl acetate, 293.15 K): 0.237
- solubility (mole fraction) (in ethyl acetate, 298.15 K): 0.251
- solubility (mole fraction) (in ethyl acetate, 303.15 K): 0.265
- solubility (mole fraction) (in ethyl acetate, 308.15 K): 0.283
- solubility (mole fraction) (in ethyl acetate, 313.15 K): 0.302
- solubility (mole fraction) (in ethyl acetate, 318.15 K): 0.324
- solubility (mole fraction) (in ethyl acetate, 323.15 K): 0.346
- solubility (mole fraction) (in isopropanol, 278.15 K): 0.204
- solubility (mole fraction) (in isopropanol, 283.15 K): 0.217
- solubility (mole fraction) (in isopropanol, 288.15 K): 0.231
- solubility (mole fraction) (in isopropanol, 293.15 K): 0.247
- solubility (mole fraction) (in isopropanol, 298.15 K): 0.262
- solubility (mole fraction) (in isopropanol, 303.15 K): 0.279
- solubility (mole fraction) (in isopropanol, 308.15 K): 0.298
- solubility (mole fraction) (in isopropanol, 313.15 K): 0.315
- solubility (mole fraction) (in isopropanol, 318.15 K): 0.336
- solubility (mole fraction) (in isopropanol, 323.15 K): 0.36
- solubility (mole fraction) (in methanol, 278.15 K): 0.228
- solubility (mole fraction) (in methanol, 283.15 K): 0.238
- solubility (mole fraction) (in methanol, 288.15 K): 0.25
- solubility (mole fraction) (in methanol, 293.15 K): 0.262
- solubility (mole fraction) (in methanol, 298.15 K): 0.277
- solubility (mole fraction) (in methanol, 303.15 K): 0.293
- solubility (mole fraction) (in methanol, 308.15 K): 0.31
- solubility (mole fraction) (in methanol, 313.15 K): 0.33
- solubility (mole fraction) (in methanol, 318.15 K): 0.351
- solubility (mole fraction) (in methanol, 323.15 K): 0.372
- solubility (mole fraction) (in n-hexane, 278.15 K): 0.0192
- solubility (mole fraction) (in n-hexane, 283.15 K): 0.0201
- solubility (mole fraction) (in n-hexane, 288.15 K): 0.0215
- solubility (mole fraction) (in n-hexane, 293.15 K): 0.0234
- solubility (mole fraction) (in n-hexane, 298.15 K): 0.0256
- solubility (mole fraction) (in n-hexane, 303.15 K): 0.0279
- solubility (mole fraction) (in n-hexane, 308.15 K): 0.0307
- solubility (mole fraction) (in n-hexane, 313.15 K): 0.0337
- solubility (mole fraction) (in n-hexane, 318.15 K): 0.0376
- solubility (mole fraction) (in n-hexane, 323.15 K): 0.0425
- solubility (mole fraction) (in n-propanol, 278.15 K): 0.19
- solubility (mole fraction) (in n-propanol, 283.15 K): 0.202
- solubility (mole fraction) (in n-propanol, 288.15 K): 0.215
- solubility (mole fraction) (in n-propanol, 293.15 K): 0.233
- solubility (mole fraction) (in n-propanol, 298.15 K): 0.253
- solubility (mole fraction) (in n-propanol, 303.15 K): 0.272
- solubility (mole fraction) (in n-propanol, 308.15 K): 0.291
- solubility (mole fraction) (in n-propanol, 313.15 K): 0.312
- solubility (mole fraction) (in n-propanol, 318.15 K): 0.333
- solubility (mole fraction) (in n-propanol, 323.15 K): 0.359
